Results as given in US10925965B2, “Protein formulations with increased stability” (Arecor Limited, priority 2010, dated 2021).
Read-outs that look alike come from different tables or passages of the source.

Key:
[1] = cited from earlier work
[2] = molecular target: human growth hormone (hGH) (Homo sapiens, UniProt P01241); experiment: Formation of high molecular weight species (HMWS) in aqueous hGH solutions at 40° C., size-exclusion HPLC; assay type: physicochemical; details: 10 mM benzoate anion, background solutions 1 and 2, 40° C.
Sequence of human growth hormone (hGH) (P01241 27-217): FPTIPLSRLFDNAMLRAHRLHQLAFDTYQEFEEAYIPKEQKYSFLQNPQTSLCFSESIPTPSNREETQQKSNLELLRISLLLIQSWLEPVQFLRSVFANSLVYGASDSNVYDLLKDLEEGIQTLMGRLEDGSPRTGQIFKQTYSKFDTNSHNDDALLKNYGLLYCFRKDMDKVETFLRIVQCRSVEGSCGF
Experimental: Formation of high molecular weight species (HMWS) was followed in aqueous solutions of hGH (15 mg/mL) using the following size-exclusion HPLC method: The mobile phase was prepared by mixing 97 parts (v/v) of 63 mM sodium phosphate (pH 7.0) with 3 parts (v/v) of propan-2-ol. The mobile phase was filtered prior to its use. The liquid chromatograph (Agilent 1100 series) was equipped with a 214 nm detector, guard column and a 7.8×300 mm BioSep SEC-S2000 column. The flow rate was maintained at 0.6 ml/min. 15 μl of aqueous samples of hGH were injected. The percentage of HMS was expressed as the ratio of the total area of all peaks with shorter elution time than the monomeric form of hGH versus the total peak area, ignoring peaks corresponding the excipients. The hGH solutions were incubated at 40° C. and assessed for the presence of HMWS at specific timepoints. In addition, the samples were assessed by eye for signs of visible precipitation.

[3] = tested on: horseradish peroxidase (HRP); experiment: Stability of horseradish peroxidase (HRP) at 60° C. (enzyme activity recovery, optical assay) with preservative and additives; assay type: biochemical
Experimental: HRP was obtained from Sigma (P8250), The enzyme was formulated at 0.5 mg/ml. Measurements of enzyme activity were performed on a 96-well plate using an optical assay: 20 μl of the formulation was mixed with 180 μl enzyme diluent solution (1.82 mM ABTS, 28 mM hydrogen peroxide in 0.1M sodium phosphate buffer pH 7.0). The resulting solution was mixed thoroughly and absorbance was read at 630 nm using a plate reader after 5 min. Optical density was calibrated using a range of concentrations of a reference enzyme solution. All measurements were carried out in triplicates and average value was recorded. Stability of enzyme was found in the preliminary experiments to be optimal at pH around 7.0 and relatively independent of ionic strength. The preservation of the enzyme activity was studied in background formulations containing 10 mM TRIS and 1,2-propanediol (300 mM) at pH 7.0. With the exception of control solutions, the solutions contained m-cresol (30 mM). The effect of the stabilizing excipients was studied by comparing the stability of HRP in the solution containing the preservative only with that in the solution containing both the preservative and the stabilizing component. The concentration of the additives tested was selected based on their solubility in aqueous solutions.

uricase = molecular target: T1, uricase (Cyberlindnera jadinii, UniProt P78609); experiment: Stability of uricase at 60° C. (enzyme activity recovery, optical assay) with preservative and additives; assay type: biochemical; details: pH 8.0
T1 construct: purchased Sigma U0880
T1 sequence (P78609 1-303): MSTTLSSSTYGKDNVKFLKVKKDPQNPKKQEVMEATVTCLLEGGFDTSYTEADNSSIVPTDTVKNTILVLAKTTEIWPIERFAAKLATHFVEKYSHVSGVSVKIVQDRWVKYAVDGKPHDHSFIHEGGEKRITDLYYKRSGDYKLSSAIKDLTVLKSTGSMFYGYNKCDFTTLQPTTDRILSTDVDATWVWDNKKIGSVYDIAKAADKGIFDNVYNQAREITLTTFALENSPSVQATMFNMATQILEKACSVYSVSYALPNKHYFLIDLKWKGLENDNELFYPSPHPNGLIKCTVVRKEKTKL
Experimental: Uricase was obtained from Sigma (U0880). The enzyme was formulated at 100 μg/ml. Measurements of enzyme activity were performed on a 96-well plate using an optical assay: 10 μl of the formulation was mixed with […] (borate buffer 25 mM, pH 8.5) and 50 μL substrate (sodium urate 2 mM). The mixture was equilibrated at room temperature for about 5 min. After 5 min, the following reagents were added in this particular order to each sample (the first reagent must be added at exactly 5 min, the timing of the other reagents addition is less crucial): 50 μl of citrate/phosphate buffer (0.5 M. pH 4.0); 15 μL of TMB (3 mg/mL, dissolved in DMSO) then 15 μL of lactoperoxidase (1 mg/mL, dissolved in water). The resulting solution was mixed thoroughly and absorbance was read at 630 nm using a plate reader. Optical density was calibrated using a range of concentrations of a reference enzyme solution. All measurements were carried out in triplicates and average value was recorded. Stability of enzyme was found in the preliminary experiments to be optimal at pH around 8.0, with minimal effect of ionic strength on the stability. The preservation of the enzyme activity was studied in a background formulation containing 10 mM histidine and 300 mM 1,2-propanediol, adjusted to pH 8. […] The effect of the stabilizing excipients was studied by comparing the stability of uricase in the solution containing the preservative only with that in the solution containing both the preservative and the stabilizing component. The concentration of the additives tested was selected based on their solubility in aqueous solutions.

Molecule: O=C(O)/C=C\c1ccccc1 [cis-cinnamic acid]
- pKa value(s) of carboxylate group(s) ([1]; first or only value given): 3.89

Molecule: O=C(O)c1ccc2ccccc2c1 [2-naphthoic acid]
- pKa value(s) of carboxylate group(s) ([1]; first or only value given): 4.17

Molecule: O=C(O)c1cc(O)c(O)c(O)c1 [3,4,5-trihydroxybenzoic acid]
- pKa value(s) of carboxylate group(s) ([1]; first or only value given): 4.41

Molecule: O=C([O-])c1ccccc1.[K+] [benzoate anion, potassium benzoate]
- Effect on rate of HMWS formation [2]: lower rate of HMWS formation

Molecule: Cc1cccc(O)c1 [m-Cresol]
- Effect on stability of HRP at 60° C. ([3]; 60° C., pH 7.0): slight impairment of stability

Molecule: O=C(O)C1CCCCC1 [Cyclohexane carboxylic acid, reference compound]
- Effect on stability of uricase at 60° C. (uricase): increase in the destabilising effect

Molecule: HRP: HRP obtained from Sigma (P8250), formulated at 0.5 mg/ml
- pH of optimal stability of enzyme ([3]; preliminary experiments): around 7.0

Molecule: O=C(O)Cc1c[nH]c2ccccc12 [indole-3-acetic acid]
- pKa value(s) of carboxylate group(s) ([1]; first or only value given): 4.75

Molecule: COc1cc(C(=O)O)ccc1O [4-hydroxy-3-methoxybenzoic acid]
- pKa value(s) of carboxylate group(s) ([1]; first or only value given): 4.5

Molecule: O=C(O)c1ccccc1C(=O)O [phthalic acid]
- pKa value(s) of carboxylate group(s) ([1]; second value printed (second carboxylate group)): 5.28

Molecule: OCc1ccccc1 [Benzyl alcohol]
- Effect on stability of uricase at 60° C. (uricase): impairment of stability

Molecule: Oc1ccccc1 [Phenol]
- Effect on stability of uricase at 60° C. (uricase): impairment of stability
